As a reminder, the IC50 is the midpoint of a concentration-inhibition curve.

Results on 25 compounds are retold here after patent US20030004172A1, “Fused pyrimidinone matrix metalloproteinase inhibitors” (priority 2001, published 2003).

SMILES strings stand for the structures. Where only a bound is given, the exact number is not on record here.

In the assay the target is MMP-13CD (catalytic domain of collagenase-3) (Homo sapiens, UniProt P45452). In words: Thiopeptolide substrate hydrolysis inhibition assay, MMP-13CD. The note with it: Table I; thiopeptolide substrate, HEPES pH 7.0, 22° C.; read-out: MMP-13CD IC50. The class given is biochemical. The text has this:
Thiopeptolide substrates show virtually no decomposition or hydrolysis at or below neutral pH in the absence of a matrix metalloproteinase enzyme.
For `COc1cc(COC(=O)c2cc3c(=O)n(Cc4ccccc4)c(=O)n(C)c3s2)cc(OC)c1` [Example 183, 3-Benzyl-1-methyl-2,4-dioxo-1,2,3,4-tetrahydro-thieno[2,3-d]pyrimidine-6-carboxylic acid 3,5-dimethoxy-benzyl ester], the IC50 stood at 30000 nM.
The figure for `COc1cccc(CNC(=O)c2cc3c(=O)n(CCCCCC#N)c(=O)n(C)c3s2)c1` [Example 283] is 1700 nM; for `COc1ccccc1CNC(=O)c1cc2c(=O)n(Cc3ccccc3)c(=O)n(C)c2s1` [Example 336, 3-Benzyl-1-methyl-2,4-dioxo-1,2,3,4-tetrahydro-thieno[2,3-d]pyrimidine-6-carboxylic acid 2-methoxy-benzylamide] it is 30000 nM.
The figure for `COc1cc(Cn2c(=O)c3cc(C(=O)OCc4ccccc4)sc3n(C)c2=O)cc(OC)c1` [Example 315, 3-(3,5-Dimethoxy-benzyl)-1-methyl-2,4-dioxo-1,2,3,4-tetrahydro-thieno[2,3-d]pyrimidine-6-carboxylic acid benzyl ester] is 20.5 nM; for `COc1cccc(CNC(=O)c2cc3c(=O)[nH]c(=O)n(C)c3s2)c1` [Example 218] it is 18000 nM; for `COc1ccc(CNC(=O)c2cc3c(=O)n(CCc4cccc5ccccc45)c(=O)n(C)c3s2)cc1` [Example 259] it is 30000 nM.
For `COC(=O)C1(c2ccc(Cn3c(=O)c4cc(C(=O)NCc5cccc(OC)c5)sc4n(C)c3=O)cc2)CC1` [Example 92, 1-{4-[6-(3-Methoxy-benzylcarbamoyl)-1-methyl-2,4-dioxo-1,4-dihydro-2H-thieno[2,3-d]pyrimidin-3-ylmethyl]-phenyl}-cyclopropanecarboxylic acid methyl ester], the IC50 is 10.9 nM.
The figure for `Cn1c(=O)n(Cc2ccccc2)c(=O)c2cc(C(=O)OCCc3ccccc3O)sc21` [Example 159, 3-Benzyl-1-methyl-2,4-dioxo-1,2,3,4-tetrahydro-thieno[2,3-d]pyrimidine-6-carboxylic acid 2-(2-hydroxy-phenyl)-ethyl ester] is 30000 nM; for `C=C(Cn1c(=O)c2cc(C(=O)OCc3ccccc3)sc2n(C)c1=O)C(=O)O` [Example 115, 3-(2-Carboxy-allyl)-1-methyl-2,4-dioxo-1,2,3,4-tetrahydro-thieno[2,3-d]pyrimidine-6-carboxylic acid benzyl ester] it is 330 nM; for `COc1ccc(CCNC(=O)c2cc3c(=O)n(Cc4ccccc4)c(=O)n(C)c3s2)cc1OC` [Example 320, 3-Benzyl-1-methyl-2,4-dioxo-1,2,3,4-tetrahydro-thieno[2,3-d]pyrimidine-6-carboxylic acid[2-(3,4-dimethoxy-phenyl)-ethyl]-amide] it is over 100000 nM.
With `CCCCCOC(=O)c1cc2c(=O)n(Cc3ccccc3)c(=O)n(C)c2s1` [Example 180, 3-Benzyl-1-methyl-2,4-dioxo-1,2,3,4-tetrahydro-thieno[2,3-d]pyrimidine-6-carboxylic acid pentyl ester], the IC50 is 30000 nM.
The figure for `COc1ccc(CNC(=O)c2cc3c(=O)n(CC#Cc4ccccc4)c(=O)n(C)c3s2)cc1` [Example 385, 1-Methyl-2,4-dioxo-3-(3-phenyl-prop-2-ynyl)-1,2,3,4-tetrahydro-thieno[2,3-d]pyrimidine-6-carboxylic acid 4-methoxy-benzylamide] is 7 nM.
For `CCOCCOC(=O)c1cc2c(=O)n(Cc3ccccc3)c(=O)n(C)c2s1` [Example 210, 3-Benzyl-1-methyl-2,4-dioxo-1,2,3,4-tetrahydro-thieno[2,3-d]pyrimidine-6-carboxylic acid 2-ethoxy-ethyl ester], the IC50 was found to be 1200 nM.
The figure for `COc1ccc(CNC(=O)c2cc3c(=O)n(CC#N)c(=O)n(C)c3s2)cc1` [Example 365, 3-Cyanomethyl-1-methyl-2,4-dioxo-1,2,3,4-tetrahydro-thieno[2,3-d]pyrimidine-6-carboxylic acid 4-methoxy-benzylamide] is 1550 nM.
Turning to `Cn1c(=O)n(Cc2ccccc2)c(=O)c2cc(C(=O)NCCc3ccccn3)sc21` [Example 361, 3-Benzyl-1-methyl-2,4-dioxo-1,2,3,4-tetrahydro-thieno[2,3-d]pyrimidine-6-carboxylic acid (2-pyridin-2-yl-ethyl)-amide], the IC50 stood at 7700 nM.
The figure for `COc1cccc(CNC(=O)c2cc3c(=O)n(CCOc4ccc(Br)cc4)c(=O)n(C)c3s2)c1` [Example 295] is 230 nM.
The figure for `COc1cccc(COC(=O)c2cc3c(=O)n(Cc4ccc(-c5nn[nH]n5)cc4)c(=O)[nH]c3s2)c1` [Example 67, 2,4-Dioxo-3-[4-(2H-tetrazol-4-yl)-benzyl]-1,2,3,4-tetrahydro-thieno[2,3-d]pyrimidine-6-carboxylic acid 3-methoxy-benzyl ester] is 1.68 nM; for `COc1cccc(CNC(=O)c2cc3c(=O)n(CCOc4ccc(F)cc4)c(=O)n(C)c3s2)c1` [Example 236, 3-[2-(4-fluoro-phenoxy)-ethyl]-1-methyl-2,4-dioxo-1,2,3,4-tetrahydro-thieno[2,3-d]pyrimidine-6-carboxylic acid 3-methoxy-benzylamide] it is 49.5 nM; for `COC(=O)Nc1cc(Cn2c(=O)c3cc(C(=O)NCc4cccc(OC)c4)sc3n(C)c2=O)on1` [Example 298] it is 490 nM.
On to `COc1ccc(CNC(=O)c2cc3c(=O)n(CCS(=O)(=O)c4ccccc4)c(=O)n(C)c3s2)cc1` [Example 227, 3-(2-Benzenesulfonyl-ethyl)-1-methyl-2,4-dioxo-1,2,3,4-tetrahydro-thieno[2,3-d]pyrimidine-6-carboxylic acid 4-methoxy-benzylamide], for which the IC50 was found to be 3800 nM.
The figure for `Cn1c(=O)n(Cc2ccccc2)c(=O)c2cc(C(=O)NCc3cccc(C(F)(F)F)c3)sc21` [Example 335, 3-Benzyl-1-methyl-2,4-dioxo-1,2,3,4-tetrahydro-thieno[2,3-d]pyrimidine-6-carboxylic acid 3-trifluoromethyl-benzylamide] is 250 nM.
The figure for `COc1cccc(CNC(=O)c2cc3c(=O)n(Cc4ccc(OC(C)(C)C(=O)O)cc4)c(=O)n(C)c3s2)c1` [Example 96, 2-{4-[6-(3-Methoxy-benzylcarbamoyl)-1-methyl-2,4-dioxo-1,4-dihydro-2H-thieno[2,3-d]pyrimidin-3-ylmethyl]-phenoxy}-2-methyl-propionic acid] is 18.5 nM; for `COC(=O)c1cc2c(=O)n(Cc3ccccc3)c(=O)n(C)c2s1` [Example 300, 3-Benzyl-1-methyl-2,4-dioxo-1,2,3,4-tetrahydro-thieno[2,3-d]pyrimidine-6-carboxylic acid methyl ester] it is over 100000 nM.
The figure for `COc1ccc(CNC(=O)c2cc3c(=O)n(Cc4ccc(C#N)cc4)c(=O)n(C)c3s2)cc1` [Example 64, 3-(4-Cyano-benzyl)-1-methyl-2,4-dioxo-1,2,3,4-tetrahydro-thieno[2,3-d]pyrimidine-6-carboxylic acid 4-methoxy-benzylamide] is 62 nM.
`COc1ccc(CNC(=O)c2cc3c(=O)n(CC4CCCCC4)c(=O)n(C)c3s2)cc1` [Example 70, 3-cylcohexylmethyl-1-methyl-2,4-dioxo-1,2,3,4-tetrahydro-thieno[2,3-d]pyrimidine-6-carboxylic acid-4methoxy-benzylamide]: the IC50 was determined as 119 nM.
